Several values for one entry are separate records, joined by “and”; a condition that tells them apart may be missing. Identical values can stand only once.
Target: T1, β-secretase(BACE) (Homo sapiens, UniProt P56817)
T1 construct: purchased Panvera
Assay: BACE FS1% Inhibition Assay
Assay type: biochemical
Conditions: FS1 substrate; for % Inhibition (FS) 10 μM: 10 μM test compound
Method in brief: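 Human BACE (4 μg/mL working solution) preincubated 20 min at room temperature with compound, then FS1 substrate (300 μg/mL working solution) added and incubated 1 h at room temperature. Percent inhibition calculated at each compound concentration against blank and vehicle controls.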

T1 sequence (P56817 46-501): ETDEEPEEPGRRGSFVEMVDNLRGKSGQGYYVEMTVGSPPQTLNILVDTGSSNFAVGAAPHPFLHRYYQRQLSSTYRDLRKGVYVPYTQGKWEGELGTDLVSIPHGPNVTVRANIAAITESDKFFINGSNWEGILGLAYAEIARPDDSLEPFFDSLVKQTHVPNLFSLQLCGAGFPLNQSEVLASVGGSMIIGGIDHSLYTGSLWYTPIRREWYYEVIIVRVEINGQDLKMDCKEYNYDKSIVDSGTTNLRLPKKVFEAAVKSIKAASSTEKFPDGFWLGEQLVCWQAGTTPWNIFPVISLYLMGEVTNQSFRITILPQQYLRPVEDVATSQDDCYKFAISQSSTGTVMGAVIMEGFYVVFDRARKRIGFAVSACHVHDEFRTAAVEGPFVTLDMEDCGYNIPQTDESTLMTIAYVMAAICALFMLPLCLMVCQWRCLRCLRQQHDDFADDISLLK

Row | Compound | % Inhibition (FS) 0.3 μM (0.3 μM test compound) [%] | % Inhibition (FS) 1 μM (1 μM test compound) [%] | % Inhibition (FS) 3 μM (3 μM test compound) [%] | other results
1 | C=CCc1cccc(C)c1Oc1ccc2c(c1)CN(Cc1cccc(C(=O)N(C)C3CCCCC3)c1)C(N)=N2 [Compound 480] | <30 | <30 | 38 | –
2 | CN(C(=O)c1cccc(CN2Cc3cc(Oc4ccc5c(c4)CCCC5)ccc3N=C2N)c1)C1CCCCC1 [Compound 233] | <30 | 32 | 36 | –
3 | NC1=Nc2ccc(-c3ccccc3Cl)cc2CN1CCNC(=O)C1CCCC1 [Compound 650] | 72 | 94 | 112 | –
4 | NC1=Nc2ccc(-c3cncnc3)cc2CN1CCNC(=O)C1CCCCC1 [Compound 575] | <30 | <30 | <30 | –
5 | CCCC(CCC(=O)NC1CCCCCC1)N1Cc2cc(Oc3ccccc3)ccc2N=C1N (stereo not shown) [Compound 128] | – | – | 97 | % Inhibition (FS) 10 μM: 108%
6 | CN(C(=O)CC(C1CCCCC1)N1Cc2cc(Oc3ccccc3)ccc2N=C1N)C1CCCCC1 (stereo not shown) [Compound 199] | <30 | <30 | 82 | –
7 | CN(C(=O)c1cccc(CN2Cc3cc(-c4cccc(C(=O)O)c4)ccc3N=C2N)c1)C1CCCCC1 [Compound 163] | <30 | 33 | <30 | –
8 | NC1=Nc2ccc(Oc3ccccc3)cc2CN1C(CCCC(=O)N1CCCCC1)CCC(=O)N1CCCCC1 (stereo not shown) [Compound 452] | <30 | 42 | 78 | –
9 | CN(C(=O)c1cccc(CN2Cc3cc(Oc4cccnc4)ccc3N=C2N)c1)C1CCCCC1 [Compound 230] | <30 | 33 | <30 | –
10 | CSc1ccccc1-c1ccc2c(c1)CN(CCNC(=O)C1CCCCC1)C(N)=N2 [Compound 540] | <30 | 30 | 84 | –
11 | CN1CCC(N(C)C(=O)c2cccc(CN3Cc4cc(Oc5ccccc5)ccc4N=C3N)c2)CC1 [Compound 223] | <30 | <30 | <30 | –
12 | NC1=Nc2ccc(Oc3ccccc3)cc2CN1C1c2ccccc2-c2c(C(=O)N(C3CCCCC3)C3CCCCC3)cccc21 (stereo not shown) [Compound 147] | – | – | <30 | % Inhibition (FS) 10 μM: 71%
13 | CN(CCCCC(=O)O)C(=O)CC[C@@H](C1CCCCC1)N1Cc2cc(Oc3ccccc3)ccc2N=C1N [Compound 752] | – | – | – | % Inhibition (FS) (0.3 μM test compound): 45%; % Inhibition (FS) (1 μM test compound): 81%; % Inhibition (FS) (3 μM test compound): 109%
14 | COc1ccccc1-c1ccc2c(c1)CN([C@@H](CCC(=O)N(C)C1CCCCC1)C1CCCCC1)C(N)=N2 [Compound 506] | 106 | 115 | 128 | –
15 | CN(C(=O)c1cccc(CN2Cc3cc(-c4ccc5[nH]ccc5c4)ccc3N=C2N)c1)C1CCCCC1 [Compound 175] | <30 | <30 | 37 | –
16 | Cc1ccccc1-c1ccc2c(c1)CN(CCNC(=O)CCC(C)C)C(N)=N2 [Compound 661] | – | – | – | % Inhibition (FS) (0.3 μM test compound): 68%; % Inhibition (FS) (1 μM test compound): 98%; % Inhibition (FS) (3 μM test compound): 106%
17 | CN1CCCC1CCNC(=O)c1cccc(CN2Cc3cc(Oc4ccccc4)ccc3N=C2N)c1 (stereo not shown) [Compound 222] | <30 | <30 | <30 | –
18 | COc1ccccc1-c1ccc2c(c1)CN(CCNC(=O)C1CCN(C(C)=O)CC1)C(N)=N2 [Compound 491] | <30 | <30 | – | % Inhibition (FS) 3 μM (3 μM test compound, 3 µM): 44% and <30%
19 | Cc1ccc(Sc2ccc3c(c2)CN(Cc2cccc(C(=O)N(C)C4CCCCC4)c2)C(N)=N3)cc1C [Compound 408] | <30 | 34 | 95 | –
20 | N#Cc1cccc(C(=O)NCCN2Cc3cc(-c4cncnc4)ccc3N=C2N)c1 [Compound 567] | <30 | <30 | <30 | –
21 | CC(C)(C)C(=O)Nc1cccc(CN2Cc3cc(Oc4ccccc4)ccc3N=C2N)c1 [Compound 290] | <30 | <30 | <30 | –
22 | CC(c1ccccc1)c1ccc2c(c1)CN(Cc1cccc(C(=O)N(C)C3CCCCC3)c1)C(N)=N2 (stereo not shown) [Compound 332] | <30 | <30 | <30 | –

Row | Compound | % Inhibition (FS) 0.3 μM (0.3 μM test compound) [%] | % Inhibition (FS) 1 μM (1 μM test compound) [%] | % Inhibition (FS) 3 μM (3 μM test compound) [%] | other results
23 | NC1=Nc2ccc(-c3ccc(F)cc3)cc2CN1CCNC(=O)C1CCCCC1 [Compound 623] | <30 | – | – | % Inhibition (FS) 1 μM (1 μM test compound, 1 µM): <30%; % Inhibition (FS) 3 μM (3 μM test compound, 3 µM): 82%
24 | Cc1cc(C(=O)NCCN2Cc3cc(-c4cccc(C(F)(F)F)c4)ccc3N=C2N)c(C)o1 [Compound 590] | <30 | <30 | <30 | –
25 | NC1=Nc2ccc(-c3ccc4ccccc4c3)cc2CN1CCNC(=O)C1CCC1 [Compound 663] | – | – | – | % Inhibition (FS) (0.3 μM test compound): <30%; % Inhibition (FS) (1 μM test compound): <30%; % Inhibition (FS) (3 μM test compound): <30%
26 | CC(C)COc1ccc2c(c1)CN(Cc1cccc(C(=O)N(C)C3CCCCC3)c1)C(N)=N2 [Compound 518] | <30 | <30 | <30 | –
27 | CN(C)Cc1ccccc1-c1ccc2c(c1)CN(Cc1cccc(C(=O)N(C)C3CCCCC3)c1)C(N)=N2 [Compound 172] | <30 | <30 | <30 | –
28 | NC1=Nc2ccc(Br)cc2CN1CCNC(=O)C1CCCCC1 [Compound 806] | – | – | – | inhibition at 0.3 µM (0.3 μM test compound, read-out: % Inhibition (FS)): < 30%; inhibition at 1 µM (1 μM test compound, read-out: % Inhibition (FS)): < 30%; inhibition at 3 µM (3 μM test compound, read-out: % Inhibition (FS)): < 30%
29 | CC(C)CC(=O)NCCN1Cc2cc(Oc3ccccc3)ccc2N=C1N [Compound 190] | 51 | 86 | 101 | –
30 | CC(C)(C)OC(=O)Nc1cccc(CN2Cc3cc(Oc4ccccc4)ccc3N=C2N)c1 [Compound 224] | <30 | <30 | <30 | –
31 | COc1ccc(Sc2ccc3c(c2)CN(Cc2cccc(C(=O)N(C)C4CCCCC4)c2)C(N)=N3)cc1OC [Compound 411] | <30 | <30 | 55 | –
32 | COc1cccc(C)c1Oc1ccc2c(c1)CN(Cc1cccc(C(=O)N(C)C3CCCCC3)c1)C(N)=N2 [Compound 468] | <30 | <30 | <30 | –
33 | CCCC(=O)NCCN1Cc2cc(-c3ccncc3)ccc2N=C1N [Compound 570] | <30 | <30 | <30 | –
34 | CN(Cc1cccc(CC(=O)O)c1)C(=O)CCC(C1CCCCC1)N1Cc2cc(Oc3ccccc3)ccc2N=C1N (stereo not shown) [Compound 778] | – | – | – | % Inhibition (FS) (0.3 μM test compound): <30%; % Inhibition (FS) (1 μM test compound): 77%; % Inhibition (FS) (3 μM test compound): 113%
35 | CN(C(=O)c1cccc(CN2Cc3cc(-c4ccc(C(N)=O)cc4)ccc3N=C2N)c1)C1CCCCC1 [Compound 162] | <30 | <30 | <30 | –
36 | CC1CCC(N(C(=O)c2cccc(CN3Cc4cc(Oc5ccccc5)ccc4N=C3N)c2)C2CCC(C)CC2)CC1 (stereo not shown) [Compound 187] | <30 | <30 | 39 | –
37 | COc1ccccc1-c1ccc2c(c1)CN(Cc1cccc(C(=O)N(C)C3CCCCC3)c1)C(NC(C)=O)=N2 [Compound 607] | 94 | 116 | 123 | –
38 | CN(C(=O)CCC(C1CCCCC1)N1Cc2cc(Oc3ccccc3)ccc2N=C1N)c1ccc(C(=O)O)cc1 (stereo not shown) [Compound 766] | – | – | – | % Inhibition (FS) (0.3 μM test compound): <30%; % Inhibition (FS) (1 μM test compound): <30%; % Inhibition (FS) (3 μM test compound): <30%
39 | COc1ccccc1-c1ccc2c(c1)CN(CCNC(=O)C1CCC(C(F)(F)F)CC1)C(N)=N2 (stereo not shown) [Compound 698] | – | – | – | % Inhibition (FS) (0.3 μM test compound): <30%; % Inhibition (FS) (1 μM test compound): <30%; % Inhibition (FS) (3 μM test compound): 64%
40 | COc1ccccc1-c1ccc2c(c1)CN([C@@H](CCC(=O)N(C)Cc1cnn(-c3ccccc3)c1)C1CCCCC1)C(N)=N2 [Compound 717] | – | – | – | % Inhibition (FS) (0.3 μM test compound): 33%; % Inhibition (FS) (1 μM test compound): 39%; % Inhibition (FS) (3 μM test compound): 72%
41 | CCCCC(CC)C(=O)NCCN1Cc2cc(-c3ccccc3C)ccc2N=C1N (stereo not shown) [Compound 662] | – | – | – | % Inhibition (FS) (0.3 μM test compound): 66%; % Inhibition (FS) (1 μM test compound): 97%; % Inhibition (FS) (3 μM test compound): 109%
42 | CN(C(=O)c1cccc(CN2Cc3cc(-c4cccc(-c5ccccc5)c4)ccc3N=C2N)c1)C1CCCCC1 [Compound 171] | <30 | 31 | 42 | –
43 | NC1=Nc2ccc(Oc3ccccc3)cc2CN1Cc1cccc(C(=O)NCCc2ccc(S(N)(=O)=O)cc2)c1 [Compound 188] | <30 | <30 | <30 | –
44 | CN(C(=O)CCC(C)(C)N1Cc2cc(Oc3ccccc3)ccc2N=C1N)C1CCCCC1 [Compound 738] | – | – | – | % Inhibition (FS) (0.3 μM test compound): 14%; % Inhibition (FS) (1 μM test compound): 28%; % Inhibition (FS) (3 μM test compound): 61%
